Key:
[1] = Caco-2 permeability assay (CacoReady kit); type: in vitro ADME; conditions: human
Summary of the method: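 Papp values come from Caco-2 barrier studies intended to predict oral bioavailability; the manufacturer's procedure for the ready-made kit was followed.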

[2] = Log D by shake flask method (octanol / PBS pH 7.4, HPLC); type: physicochemical; conditions: octanol / PBS pH 7.4, shake flask; read-out: logD
Summary of the method: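 Shake-flask partitioning of compound between octanol and PBS at pH 7.4, with phase concentrations quantified by HPLC. The value reported is Log D.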

[3] = molecular target: T1, recombinant human transglutaminase 2 (Homo sapiens, UniProt P21980); assay: Transglutaminase assay: incorporation of dansylcadaverine into dimethylcasein (DCC-assay); type: biochemical; conditions: recombinant human TG2 10 nM, dansylcadaverine/dimethylcasein; read-out: IC50 TG2
T1 sequence (P21980 1-687): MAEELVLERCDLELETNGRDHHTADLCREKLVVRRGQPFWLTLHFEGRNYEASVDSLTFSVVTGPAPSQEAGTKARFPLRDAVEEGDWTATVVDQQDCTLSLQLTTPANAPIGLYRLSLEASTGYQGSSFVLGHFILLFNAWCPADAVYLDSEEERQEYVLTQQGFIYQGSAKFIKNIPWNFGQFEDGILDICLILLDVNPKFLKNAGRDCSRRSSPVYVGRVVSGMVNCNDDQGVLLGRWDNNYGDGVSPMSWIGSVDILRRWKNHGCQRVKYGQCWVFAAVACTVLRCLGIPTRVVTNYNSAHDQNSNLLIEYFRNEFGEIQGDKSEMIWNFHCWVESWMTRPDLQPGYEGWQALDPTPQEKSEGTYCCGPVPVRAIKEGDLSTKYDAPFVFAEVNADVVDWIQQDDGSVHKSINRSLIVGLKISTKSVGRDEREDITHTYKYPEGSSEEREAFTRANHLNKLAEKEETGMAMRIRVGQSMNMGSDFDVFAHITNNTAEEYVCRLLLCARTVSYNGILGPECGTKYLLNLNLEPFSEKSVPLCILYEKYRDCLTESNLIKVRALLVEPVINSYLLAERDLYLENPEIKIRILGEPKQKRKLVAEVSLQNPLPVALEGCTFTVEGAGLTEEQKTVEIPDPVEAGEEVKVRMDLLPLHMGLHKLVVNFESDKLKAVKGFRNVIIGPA
Summary of the method: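 Recombinant human TG2 (10 nM final) incorporates dansylcadaverine (16.7 μM) into N,N-dimethylcasein (4 μM) in Tris-HCl buffer, pH 8.0, with 10 mM CaCl2 and 10 mM glutathione. Fluorescence (λex 330, λem 500 nm) followed 30 min. The slope between 20–30 min gives activity versus DMSO control, and IC50 comes from the concentration–activity plot.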

SMILES	Papp [1]	logD [2]	IC50 [3]
CCNC(=O)C(=O)CC[C@H](NC(=O)[C@H]1COCCN1)C(=O)Nc1cccn(CC(=O)NC2C3CC4CC2CC(C)(C4)C3)c1=O (stereo partly drawn) [Compound I-62, (S)-N1-ethyl-N6-(1-(2-(5-methyladamantane-2-amino)-2-oxoethyl)-2-oxo-1,2-dihydropyridin-3-yl)-5-((R)-morpholine-3-carboxamido)-2-oxohexanediamide]	< 1 ×10⁻⁶ cm/s	1 to 3	150 to 600 nM
CCNC(=O)C(=O)CC[C@H](NC(=O)c1cc2cccc(F)c2s1)C(=O)Nc1cccn(CC(=O)NC2C3CC4CC(C3)CC2C4)c1=O (stereo partly drawn) [Compound I-35, (S)-N1-ethyl-5-(7-fluorobenzo[b]thiophene-2-carboxamido)-N6-(1-(2-(2-adamantylamino)-2-oxoethyl)-2-oxo-1,2-dihydropyridin-3-yl)-2-oxohexanediamide]	1 to 10 ×10⁻⁶ cm/s	3 to 5	< 150 nM
CCNC(=O)C(=O)CC[C@H](NC(=O)c1cncn1C)C(=O)Nc1cccn(CC(=O)NC23CC4CC(CC(C)(C4)C2)C3)c1=O [Compound I-25, (S)-N1-ethyl-N6-(1-(2-(3-methyladamantane-1-amino)-2-oxoethyl)-2-oxo-1,2-dihydropyridin-3-yl)-5-(1-methyl-1H-imidazole-5-carboxamido)-2-oxohexanediamide]	< 1 ×10⁻⁶ cm/s	1 to 3	150 to 600 nM
CCNC(=O)C(=O)CC[C@H](NC(=O)c1cnccn1)C(=O)Nc1cccn(CC(=O)NC2C3CC4CC2CC(O)(C4)C3)c1=O (stereo partly drawn) [Compound I-58, (S)-N1-ethyl-N6-(1-(2-(5-hydroxyadamantane-2-amino)-2-oxoethyl)-2-oxo-1,2-dihydropyridin-3-yl)-2-oxo-5-(pyrazine-2-carboxamido)hexanediamide]	< 1 ×10⁻⁶ cm/s	< 1	150 to 600 nM
CCNC(=O)C(=O)CC[C@H](NC(=O)c1cnnn1C)C(=O)Nc1cccn(CC(=O)NC2C3CC4CC(C3)CC2C4)c1=O (stereo partly drawn) [Compound I-56, (S)-N1-ethyl-N6-(1-(2-(2-adamantylamino)-2-oxoethyl)-2-oxo-1,2-dihydropyridin-3-yl)-5-(1-methyl-1H-1,2,3-triazole-5-carboxamido)-2-oxohexanediamide]	1 to 10 ×10⁻⁶ cm/s	< 1	< 150 nM
CCNC(=O)C(=O)CC[C@H](NC(=O)c1cc(Br)c(Cl)s1)C(=O)Nc1cccn(CC(=O)NC2C3CC4CC(C3)CC2C4)c1=O (stereo partly drawn) [Compound I-52, (S)-2-(4-bromo-5-chlorothiophene-2-carboxamido)-N6-ethyl-N1-(1-(2-(2-adamantylamino)-2-oxoethyl)-2-oxo-1,2-dihydropyridin-3-yl)-5-oxohexanediamide]	1 to 10 ×10⁻⁶ cm/s	3 to 5	< 150 nM
CCNC(=O)C(=O)CC[C@H](NC(=O)c1cncn1C)C(=O)Nc1cccn(CC(=O)NC23CC4CC(C)(CC(C)(C4)C2)C3)c1=O [Compound I-4, (S)-N1-ethyl-N6-(1-(2-(3,5-dimethyladamantane-1-amino)-2-oxoethyl)-2-oxo-1,2-dihydropyridin-3-yl)-5-(1-methyl-1H-imidazole-5-carboxamido)-2-oxohexanediamide]	< 1 ×10⁻⁶ cm/s	1 to 3	< 150 nM
CCNC(=O)C(=O)CC[C@H](NC(=O)c1ncn(C)n1)C(=O)Nc1cccn(CC(=O)N[C@@H]2C[C@@H]3C[C@H]([C@H]2C)C3(C)C)c1=O [Compound I-76, (S)-N1-ethyl-5-(1-methyl-1H-1,2,4-triazole-3-carboxamido)-2-oxo-N6-(2-oxo-1-(2-oxo-2-((1R,2R,3R,5S)-2,6,6-trimethylbicyclo[3.1.1]heptan-3-ylamino)ethyl)-1,2-dihydropyridin-3-yl)hexanediamide]	< 1 ×10⁻⁶ cm/s	1 to 3	150 to 600 nM
CCNC(=O)C(=O)CC[C@H](NC(=O)c1cnc(Cl)n1C)C(=O)Nc1cccn(CC(=O)NC23CC4(C)CC(C)(CC(C)(C4)C2)C3)c1=O [Compound I-29, (S)-2-(2-chloro-1-methyl-1H-imidazole-5-carboxamido)-N6-ethyl-N1-(1-(2-(3,5,7-trimethyl-1-adamantylamino)-2-oxoethyl)-2-oxo-1,2-dihydropyridin-3-yl)-5-oxohexanediamide]	< 1 ×10⁻⁶ cm/s	1 to 3	< 150 nM
CCNC(=O)C(=O)CC[C@H](NC(=O)c1cc2ccccc2o1)C(=O)Nc1cccn(CC(=O)NC2C3CC4CC(C3)CC2C4)c1=O (stereo partly drawn) [Compound I-30, (S)-2-(benzofuran-2-carboxamido)-N6-ethyl-N1-(1-(2-(2-adamantylamino)-2-oxoethyl)-2-oxo-1,2-dihydropyridin-3-yl)-5-oxohexanediamide]	1 to 10 ×10⁻⁶ cm/s	3 to 5	< 150 nM
CCNC(=O)C(=O)CC[C@H](NC(=O)c1cccnn1)C(=O)Nc1cccn(CC(=O)N[C@@H]2C[C@@H]3C=C[C@H]2C3)c1=O [Compound I-73, (S)-N1-(1-(2-((1R,2R,4R)-bicyclo[2.2.1]hept-5-en-2-ylamino)-2-oxoethyl)-2-oxo-1,2-dihydropyridin-3-yl)-N6-ethyl-5-oxo-2-(pyridazine-3-carboxamido)hexanediamide]	< 1 ×10⁻⁶ cm/s	< 1	150 to 600 nM
CCNC(=O)C(=O)CC[C@H](NC(=O)c1cn2ccsc2n1)C(=O)Nc1cccn(CC(=O)N[C@@H]2C[C@@H]3CC[C@H]2C3)c1=O [Compound I-98, (S)-N1-(1-(2-((1S,2R,4R)-bicyclo[2.2.1]heptan-2-ylamino)-2-oxoethyl)-2-oxo-1,2-dihydropyridin-3-yl)-N6-ethyl-2-(imidazo[2,1-b]thiazole-6-carboxamido)-5-oxohexanediamide]	< 1 ×10⁻⁶ cm/s	1 to 3	600 to 3500 nM
CCNC(=O)C(=O)CC[C@H](NC(=O)c1nc(Br)cs1)C(=O)Nc1cccn(CC(=O)NC2C3CC4CC(C3)CC2C4)c1=O (stereo partly drawn) [Compound I-50, (S)-2-(4-bromothiazole-2-carboxamido)-N6-ethyl-N1-(1-(2-(2-adamantylamino)-2-oxoethyl)-2-oxo-1,2-dihydropyridin-3-yl)-5-oxohexanediamide]	1 to 10 ×10⁻⁶ cm/s	3 to 5	< 150 nM
CCNC(=O)C(=O)CC[C@H](NC(=O)c1cncn1C)C(=O)Nc1cccn(CC(=O)NC23CC4CC(C2)CC(C(F)(F)F)(C4)C3)c1=O [Compound I-6, (S)-N1-ethyl-N6-(1-(2-(3-trifluoromethyladamantane-1-amino)-2-oxoethyl)-2-oxo-1,2-dihydropyridin-3-yl)-5-(1-methyl-1H-imidazole-5-carboxamido)-2-oxohexanediamide]	< 1 ×10⁻⁶ cm/s	< 1	150 to 600 nM
CCNC(=O)C(=O)CC[C@H](NC(=O)c1cncn1C)C(=O)Nc1cccn(CC(=O)NC[C@@H]2CC[C@@H]3C[C@H]2C3(C)C)c1=O [Compound I-14, (S)-N1-(1-(2-(((1R,2R,5R)-6,6-dimethylbicyclo[3.1.1]heptan-2-yl)methylamino)-2-oxoethyl)-2-oxo-1,2-dihydropyridin-3-yl)-N6-ethyl-2-(1-methyl-1H-imidazole-5-carboxamido)-5-oxohexanediamide]	< 1 ×10⁻⁶ cm/s	1 to 3	150 to 600 nM
CCNC(=O)C(=O)CC[C@H](NC(=O)c1cc(Cl)c(Cl)s1)C(=O)Nc1cccn(CC(=O)NC2C3CC4CC(C3)CC2C4)c1=O (stereo partly drawn) [Compound I-54, (S)-2-(4,5-dichlorothiophene-2-carboxamido)-N6-ethyl-N1-(1-(2-(2-adamantylamino)-2-oxoethyl)-2-oxo-1,2-dihydropyridin-3-yl)-5-oxohexanediamide]	1 to 10 ×10⁻⁶ cm/s	3 to 5	< 150 nM

Reference: US20240270715A1, “INHIBITORS OF TRANSGLUTAMINASES” (ZEDIRA GMBH, priority 2021, published 2024)
